The values below come from US9586957B2, “2-keto amide derivatives as HIV attachment inhibitors” (priority 2013, dated 2017).

In general, EC50 refers to the midpoint of the concentration-response curve.

This assay deals with HIV-1 LAI. Briefly: Single-round infectious HIV-1 LAI envelope luciferase reporter virus infection of MT2 cells. The settings on record: Human immunodeficiency virus 1, MT2, 72 h. The format is cell-based. The source says: • Virus production—Human embryonic Kidney cell line, 293T (HEK 293T), was propagated in Dulbecco's Modified Eagle Medium (Invitrogen, Carlsbad, Calif.) containing 10% fetal bovine serum (FBS, Sigma, St. Louis, Mo.). The human T-cell leukemia cell MT2 (AIDS Research and Reference Reagent Program, Cat. 237) was propagated in RPMI 1640 (Invitrogen, Carlsbad, Calif.) containing 10% fetal bovine serum (FBS, Hyclone, Logan, Utah) • Virus infection—Single-round infectious reporter virus was produced by co-transfecting HEK 293T cells with plasmide expressing the HIV-1 LAI envelope along with a plasmid containing an HIV-1 LAI proviral cDNA with the envelope gene replaced by a firefly luciferase reporter gene (Chen et al., Ref 41). Transfections were performed using lipofectAMINE PLUS reagent as described by the manufacturer (Invitrogen, Carlsbad, Calif.). Experimental Procedure • 1. MT2 cells were plated in black, 384 well plates at a cell density of 5×10^3 cells per well in 25 μl RPMI 1640 containing 10% FBS. • 2. Compound (diluted in dimethylsulfoxide and growth medium) was added to cells at 12.5 μl/well, so that the final assay concentration would be ≦50 nM. • 3. 12.5 μl of single-round infectious reporter virus in Dulbecco's Modified Eagle
Medium was added to the plated cells and compound at an approximate multiplicity of infection (MOI) of 0.01, resulting in a final volume of 50 μl per well. • 4. Virus-infected cells were incubated at 37 degrees Celsius in a CO2 incubator and harvested 72 h after infection. • 5. Viral infection was monitored by measuring luciferase expression in the infected cells using a luciferase reporter gene assay kit (Steady-Glo, Promega, Madison, Wis.) as described by the manufacturer. Luciferase activity was then quantified by measuring luminescence using an EnVision Multilabel Plate Readers (PerkinElmer, Waltham, Mass.). • 6. The percent inhibition for each compound was calculated by quantifying the level of luciferase expression in cells infected in the presence of each compound as a percentage of that observed for cells infected in the absence of compound and subtracting such a determined value from 100. • 7. An EC50 provides a method for comparing the antiviral potency of the compounds of the invention. The effective concentration for fifty percent inhibition (EC50) was calculated with the Microsoft Excel Xlfit curve fitting software. For each compound, curves were generated from percent inhibition calculated at 10 different concentrations by using a four parameter logistic model (model 205). Table 1 is the key for the data in Table 2.
For orientation: A reporter such as luciferase makes a cellular process visible.

Where [1] appears, read: read-out: EC50 Group from Table 1.

Where two headings read alike, the source gives them in different places. A value given as a limit tells only on which side of the number the result lay.

As to `O=C(C(=O)N1CCCC(c2ccccc2)CC1)c1c[nH]c2c(-n3ccnn3)ncc(F)c12` (centres unmarked) [Compound 1006], the 50% effective concentration (EC50) under setting [1] is below 500 nM. As for `COc1cnc(-n2cnc(C)n2)c2[nH]cc(C(=O)C(=O)N3CCc4ncn(-c5ccccc5)c4CC3)c12` [Compound 2001], the concentration giving a half-maximal response (EC50) was found to be 0.09 nM. In addition, under setting [1], the EC50 is below 500 nM. Turning to `COc1cnc(-n2cnc(C)n2)c2[nH]cc(C(=O)C(=O)N3CCC(=C(C#N)c4ccccc4)C3)c12` [Compound 1008], the EC50 came to 18.9 nM. Further, under setting [1], the 50% effective concentration (EC50) is below 500 nM. Take `COc1ncc(OC)c2c(C(=O)C(=O)N3CCC(Oc4ccc(Cl)cc4)CC3)c[nH]c12` [Compound 1015]: under setting [1], the concentration for a half-maximal effect (EC50) is above 500 nM.

In turn, `O=C(C(=O)N1CCC(Nc2ccccc2)CC1)c1c[nH]c2c(-n3ccnn3)ncc(F)c12` [Compound 1010] yielded an EC50 of 41.8 nM. Further, under setting [1], the concentration giving a half-maximal response (EC50) is below 500 nM. For `O=C(C(=O)N1CCC[C@H](c2ccccc2)C1)c1c[nH]c2c(-n3ccnn3)ncc(F)c12` [Compound 1002], the EC50 under setting [1] was below 500 nM. With `COc1ccnc2[nH]cc(C(=O)C(=O)N3CCC(Oc4ccccc4)CC3)c12` [Compound 1012], the EC50 under setting [1] is below 500 nM. For the compound `O=C(C(=O)N1CCC(Oc2ccccc2)CC1)c1c[nH]c2c(-n3ccnn3)ncc(F)c12` [Compound 1009], the EC50 under setting [1] is below 500 nM. Consider `O=C(C(=O)N1CCCC(c2cccc(F)c2)C1)c1c[nH]c2c(-n3ccnn3)ncc(F)c12` (centres unmarked) [Compound 1004], for which the concentration giving a half-maximal response (EC50) under setting [1] is above 500 nM.

Regarding `O=C(C(=O)N1CCCC(Cc2ccccc2)C1)c1c[nH]c2c(-n3ccnn3)ncc(F)c12` (centres unmarked) [Compound 1005], under setting [1], the concentration giving a half-maximal response (EC50) was above 500 nM. Still for that read-out and setting: the result for `COc1cnc(-n2cnc(C)n2)c2[nH]cc(C(=O)C(=O)N3Cc4nn(-c5ccccc5)c(N)c4C3)c12` [Compound 2003] reads below 500 nM; that for `O=C(C(=O)N1CCCC(c2ccc(Cl)cc2)C1)c1c[nH]c2c(-n3ccnn3)ncc(F)c12` (centres unmarked) [Compound 1003], above 500 nM; that for `CCC(=O)N(c1ccccc1)C1CCN(C(=O)C(=O)c2c[nH]c3c(-n4ccnn4)ncc(F)c23)CC1` [Compound 1011], below 500 nM. With `COc1ncc(OC)c2c(C(=O)C(=O)N3CCC(Oc4ccccc4)CC3)c[nH]c12` [Compound 1013], the EC50 under setting [1] is above 500 nM.

Take `O=C(C(=O)N1CCC(c2cccc(C(F)(F)F)c2)C(O)C1)c1c[nH]c2ccccc12` (centres unmarked) [Compound 1019]: the EC50 under setting [1] is above 500 nM.

Regarding `O=C(C(=O)N1CCC(Nc2cccc(S(=O)(=O)C(F)(F)F)c2)CC1)c1c[nH]c2ccccc12` [Compound 1018], under setting [1], the concentration giving a half-maximal response (EC50) was above 500 nM.

As to `COc1ccc(OC2CN(C(=O)C(=O)c3c[nH]c4c(-n5ccnn5)ncc(F)c34)C2)cc1` [Compound 1020], the EC50 under setting [1] is below 500 nM. The same measure, in the same setting: the result for `O=C(C(=O)N1CCCC(Oc2ccccc2)C1)c1c[nH]c2cccc(F)c12` (centres unmarked) [Compound 1016] reads above 500 nM; that for `NC(=O)C1(Nc2ccccc2)CCN(C(=O)C(=O)c2c[nH]c3ccccc23)CC1` [Compound 1017], above 500 nM. Compound `O=C(C(=O)N1CCC(c2ccccc2)C1)c1c[nH]c2c(-n3ccnn3)ncc(F)c12` (centres unmarked) [Compound 1001] came in with an EC50 of 38.1 nM. Also, the concentration giving a half-maximal response (EC50) under setting [1] was below 500 nM. In turn, `COc1cnc(-n2cnc(C)n2)c2[nH]cc(C(=O)C(=O)N3CCc4nn(-c5ccccc5)cc4C3)c12` [Compound 2002] displayed a 50% effective concentration (EC50) of 0.92 nM. In addition, the EC50 under setting [1] was below 500 nM. Compound `COc1ccnc2[nH]cc(C(=O)C(=O)N3CCC(Oc4ccc(Cl)cc4)CC3)c12` [Compound 1014] showed a concentration giving a half-maximal response (EC50) of 757 nM. Further, the half-maximal effective concentration (EC50) under setting [1] is above 500 nM. `O=C(C(=O)N1CCC(Nc2ccccc2)C1)c1c[nH]c2c(-n3ccnn3)ncc(F)c12` (centres unmarked) [Compound 1007]: under setting [1], the EC50 was below 500 nM.
